{"source": "paper PMC12459314", "about": "“Subcutaneous administration of a novel TRPM8 antagonist reverses cold hypersensitivity while attenuating the drop in core body temperature” (British journal of pharmacology, 2024)", "key": {"[1]": {"conditions": "ref Journigan et al, 2020; cited from earlier work"}, "[2]": {"assay": "Brain levels in vivo by UPLC-MS/MS", "design": "species or system rat", "method": "VBJ103 levels in the brain were determined by PsychoGenics Inc (Paramus, USA). VBJ103 and vehicle solutions were administered subcutaneously at a dose of 100 mg·kg^−1. Male and female Sprague–Dawley rats (200–250 g) supplied by Envigo were used in this study and housed three per cage (26 cm × 47.6 cm × 20.3 cm) upon arrival. Rats with jugular vein catheters (JVC) were housed two per cage with a divider to prevent damage to catheters. Cages contained BedO’-Cob® bedding with Nylabones® for enrichment. Rats were acclimatised for 2 to 7 days prior to commencing studies. All rats were examined, handled and weighed prior to initiation of the study to assure adequate health and suitability. During the course of the study, 12/12 light/dark cycles were maintained with lights on at 6 AM. The room temperature was maintained between 20°C and 23°C with a relative humidity maintained around 50%. Chow (Lab diet 5001, LabDiet, St. Louis, MO, USA) and water were provided ad libitum throughout the acclimatisation period and during the treatment and collection period. Rats were randomly assigned to the experimental groups.\nUPLC-MS/MS analysis was performed on a ODS 3 Inertsil C18 column 2.1 × 50 mm, 2 μm (GL Sciences 5020–84652), using a gradient of 40:60 solvent A (H2O + 0.5% formic acid):solvent B (ACN + 1.0% formic acid) → 0:100 for 2 min at a flow rate of 0.5 ml·min^−1. The following parameters were used: injection volume 5 μl, column temperature 40°C, pre-column temperature 40°C and sample temperature 4°C. Eluted peaks were monitored with a Waters Xevo TQ-XS coupled to an Acquity i-Class Plus UPLC setup (range: 334.19 Da to 155.04 and 198.08 Da). RT = 1.15 min. The range of quantitation was 0.25 to 10,000 ng·ml^−1 for brain. The software Masslynx V4.2 SCN1012 was used for instrument control and data acquisition.\nBrain collection was performed via live decapitation. Whole brains were collected at 1 h following administration and upon completion of serial collections (24 h). Resultant brains were rinsed in saline and frozen immediately on a cold plate (−77°C) before placement into a pre-weighed specimen container. Brain weights were then determined prior to placement of the samples on dry ice followed by relocation to a −80°C freezer pending bioanalysis.\nPre-weighed whole brain tissue was homogenized (Omni Prep multichannel tissue homogenizer) using a 1:1 MilliQ water (containing 0.2% acetic acid)/acetonitrile mixture which was added to the brain using a 4:1 solution to brain ratio. Subsequently, the homogenate was centrifuged for 10 min at 4°C at a speed of 2688 g. Three 25-μl aliquots out of the top layer of the centrifuged homogenate were crashed into three QuanRecovery wells, each containing 150 μl of acetonitrile/internal standard. The crash was then centrifuged for 20 min at 2688 g while maintaining a temperature of 4°C. Mixing of the resultant supernatant with water (3:2) provided samples for triplicate analysis. Brain standards, quality controls (QCs) and blanks were prepared using a male Sprague–Dawley brain acquired from BioIVT using the same protocol outlined above. All standards, QCs, samples and blanks were then loaded onto the UPLC-MS/MS for analysis.\nThe concentration of VBJ103/mass was based on brain weights. The volume of the homogenate was based on a 4:1 dilution of the brains. The volumes of homogenate was calculated based on brain weights in Table S13."}}, "note": "Where “and” joins values, the source holds several entries; their conditions need not be identical. Equal values may be shown once. Read-outs that look alike come from different tables or passages of the source."}
{"compound": "O=C(NC1CCC2(CCCC2)CC1)c1ccc(-c2ccccc2)cc1", "note": "[VBJ103, N-(Spiro[4.5]decan-8-yl)-[1,1′-biphenyl]-4-carboxamide]", "values": [{"measurement": "Mouse Liver microsomes, T1/2", "setting": "[1]", "result": 30, "unit": "min"}, {"measurement": "concentration at 1 h", "setting": "[2]; female SD rats (animals 13-16), 100 mg/kg SC, 24 h, 100 mg/kg, read-out: brain levels, individual animals", "result": "0.0146 µM and 0.0119 µM and 0.0071 µM and 0.0081 µM"}, {"measurement": "concentration at 1 h", "setting": "[2]; female SD rats (animals 26-28), 100 mg/kg SC, 1 h, 100 mg/kg, read-out: brain levels, individual animals", "result": "0.039 µM and 0.051 µM"}, {"measurement": "concentration at 1 h", "setting": "[2]; female, Sprague-Dawley, rat, brain, sc, 100 mg/kg, female SD rats (animals 26-28), 100 mg/kg SC, 1 h, read-out: brain levels, individual animals", "result": 0.04, "unit": "µM"}, {"measurement": "concentration at 1 h", "setting": "[2]; female, Sprague-Dawley, rat, brain, sc, 100 mg·kg^−1, female rats, 100 mg·kg−1 s.c., 1 h per Table S12, read-out: mean brain concentration", "result": "0.043 ± 0.004", "unit": "µM"}, {"measurement": "concentration at 1 h", "setting": "[2]; male SD rats (animals 9-12), 100 mg/kg SC, 24 h, 100 mg/kg, read-out: brain levels, individual animals", "result": "0.0069 µM and 0.0079 µM and 0.0039 µM and 0.0049 µM"}, {"measurement": "concentration at 1 h", "setting": "[2]; male SD rats (animals 23-25), 100 mg/kg SC, 1 h, 100 mg/kg, read-out: brain levels, individual animals", "result": "0.047 µM and 0.056 µM"}, {"measurement": "concentration at 1 h", "setting": "[2]; male, Sprague-Dawley, rat, brain, sc, 100 mg/kg, male SD rats (animals 23-25), 100 mg/kg SC, 1 h, read-out: brain levels, individual animals", "result": 0.053, "unit": "µM"}, {"measurement": "concentration at 1 h", "setting": "[2]; male, Sprague-Dawley, rat, brain, sc, 100 mg·kg^−1, male rats, 100 mg·kg−1 s.c., 1 h per Table S12, read-out: mean brain concentration", "result": "0.052 ± 0.002", "unit": "µM"}]}
